This note sets out measurements from ChEMBL document CHEMBL1201862, “PubChem BioAssay data set” (2004).

Structures are written as SMILES. The source made the active and inactive calls.

Data set [1] has as its target T1, Aminopeptidase N (Plasmodium falciparum FcB1/Columbia, UniProt O96935).
T1 sequence (O96935 whole entry): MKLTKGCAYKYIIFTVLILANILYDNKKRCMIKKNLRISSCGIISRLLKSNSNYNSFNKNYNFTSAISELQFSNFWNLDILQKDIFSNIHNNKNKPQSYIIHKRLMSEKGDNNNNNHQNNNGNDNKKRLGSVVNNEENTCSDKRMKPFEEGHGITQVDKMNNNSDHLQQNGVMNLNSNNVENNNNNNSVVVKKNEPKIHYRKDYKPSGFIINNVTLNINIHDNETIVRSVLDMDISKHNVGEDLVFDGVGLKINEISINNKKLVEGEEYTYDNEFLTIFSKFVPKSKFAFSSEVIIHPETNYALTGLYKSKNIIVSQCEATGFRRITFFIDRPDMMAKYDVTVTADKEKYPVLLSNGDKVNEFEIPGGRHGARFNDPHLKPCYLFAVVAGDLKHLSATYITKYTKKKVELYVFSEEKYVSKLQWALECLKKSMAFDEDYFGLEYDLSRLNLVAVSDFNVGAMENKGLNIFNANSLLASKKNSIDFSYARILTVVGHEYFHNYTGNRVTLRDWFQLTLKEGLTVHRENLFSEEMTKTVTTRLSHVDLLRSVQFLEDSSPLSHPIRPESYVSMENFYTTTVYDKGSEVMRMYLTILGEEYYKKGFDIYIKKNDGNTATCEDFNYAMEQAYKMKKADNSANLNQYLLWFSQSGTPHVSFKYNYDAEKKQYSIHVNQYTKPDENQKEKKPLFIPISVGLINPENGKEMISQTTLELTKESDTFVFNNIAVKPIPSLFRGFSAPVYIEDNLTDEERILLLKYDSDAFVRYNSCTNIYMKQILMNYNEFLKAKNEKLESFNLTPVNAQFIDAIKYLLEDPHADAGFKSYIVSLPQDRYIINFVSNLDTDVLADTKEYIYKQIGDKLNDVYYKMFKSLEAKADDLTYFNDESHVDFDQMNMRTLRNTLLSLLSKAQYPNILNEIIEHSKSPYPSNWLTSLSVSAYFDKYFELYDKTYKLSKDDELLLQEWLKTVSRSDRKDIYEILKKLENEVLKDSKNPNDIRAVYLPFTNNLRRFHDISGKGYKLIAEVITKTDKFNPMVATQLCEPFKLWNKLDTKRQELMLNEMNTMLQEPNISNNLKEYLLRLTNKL
Description: malaria alanyl aminopeptidase activity blockers – biochemical, fluorogenic H-Leu-NHMec substrate, 1536-well (AID 1445). Further details: species or system Plasmodium falciparum 3D7, 3D7.

Data set [2] deals with Cytochrome P450 3A4 (Homo sapiens, UniProt P08684).
For data set [3], the target named is T2, Cytochrome P450 2C9 (Homo sapiens, UniProt P11712).
Data set [4] has as its target T3, Cytochrome P450 1A2 (Homo sapiens, UniProt P05177).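 Also: PubChem cytochrome P450 panel assay, CYP1A2 panel member.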
T3 sequence (P05177 whole entry): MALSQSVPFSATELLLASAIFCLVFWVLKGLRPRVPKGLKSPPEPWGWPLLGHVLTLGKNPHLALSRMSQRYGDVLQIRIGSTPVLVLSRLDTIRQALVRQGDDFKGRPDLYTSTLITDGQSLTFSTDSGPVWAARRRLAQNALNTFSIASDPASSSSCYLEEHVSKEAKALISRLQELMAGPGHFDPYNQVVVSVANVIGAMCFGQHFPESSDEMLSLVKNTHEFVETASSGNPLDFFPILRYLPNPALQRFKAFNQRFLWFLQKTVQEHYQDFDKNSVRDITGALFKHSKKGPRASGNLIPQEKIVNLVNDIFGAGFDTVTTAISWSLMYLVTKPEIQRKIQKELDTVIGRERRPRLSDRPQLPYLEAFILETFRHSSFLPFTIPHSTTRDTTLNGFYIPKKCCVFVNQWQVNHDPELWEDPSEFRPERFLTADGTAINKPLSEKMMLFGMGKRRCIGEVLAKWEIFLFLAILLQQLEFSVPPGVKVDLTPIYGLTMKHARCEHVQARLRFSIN

Data set [5] addresses Cytochrome P450 2D6 (Homo sapiens, UniProt P10635).
Data set [6] deals with Genome polyprotein (dengue virus type 2, UniProt P29990). Put plainly: flavivirus cap methylation enzyme inhibition – biochemical, confirmation dose response, primary screen (AID 588689). Type of data set: functional.
The target in data set [7] is T2, Cytochrome P450 2C9. This is another data set of the same source.
The target of data set [8] is T4, Protein RecA (Mycobacterium tuberculosis, UniProt P9WHJ3).
T4 sequence (P9WHJ3 whole entry): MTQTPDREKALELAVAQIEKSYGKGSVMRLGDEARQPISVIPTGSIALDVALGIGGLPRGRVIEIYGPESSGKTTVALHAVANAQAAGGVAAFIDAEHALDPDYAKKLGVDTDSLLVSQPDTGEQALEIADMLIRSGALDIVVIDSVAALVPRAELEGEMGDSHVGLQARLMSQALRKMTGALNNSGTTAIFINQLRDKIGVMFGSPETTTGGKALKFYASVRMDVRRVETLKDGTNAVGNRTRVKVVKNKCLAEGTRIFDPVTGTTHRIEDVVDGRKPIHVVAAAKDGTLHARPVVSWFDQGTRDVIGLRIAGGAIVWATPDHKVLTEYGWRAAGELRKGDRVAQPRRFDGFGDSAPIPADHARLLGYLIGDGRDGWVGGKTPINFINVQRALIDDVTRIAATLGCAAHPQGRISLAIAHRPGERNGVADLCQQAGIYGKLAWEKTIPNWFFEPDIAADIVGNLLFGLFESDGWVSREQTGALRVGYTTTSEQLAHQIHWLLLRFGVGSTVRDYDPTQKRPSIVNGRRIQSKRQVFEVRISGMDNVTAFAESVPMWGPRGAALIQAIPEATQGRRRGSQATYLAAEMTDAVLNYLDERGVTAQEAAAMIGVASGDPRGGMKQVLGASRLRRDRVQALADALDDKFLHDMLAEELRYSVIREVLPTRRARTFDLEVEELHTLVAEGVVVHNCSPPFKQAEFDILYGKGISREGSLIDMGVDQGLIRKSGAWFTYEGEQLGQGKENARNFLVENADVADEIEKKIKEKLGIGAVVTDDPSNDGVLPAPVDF
Put plainly: Fluorescence Cell-Free Homogeneous Dose Retest to Identify Inhibitors of RecA-Intein Splicing Activity. [Related pubchem assays (depositor defined):AID2097, AID2223, AID489010, AID492950]. Type of data set: functional.

Data set [9] addresses T5, Replicative DNA helicase DnaB (Mycobacterium tuberculosis, UniProt P9WMR3).
T5 sequence (P9WMR3 whole entry): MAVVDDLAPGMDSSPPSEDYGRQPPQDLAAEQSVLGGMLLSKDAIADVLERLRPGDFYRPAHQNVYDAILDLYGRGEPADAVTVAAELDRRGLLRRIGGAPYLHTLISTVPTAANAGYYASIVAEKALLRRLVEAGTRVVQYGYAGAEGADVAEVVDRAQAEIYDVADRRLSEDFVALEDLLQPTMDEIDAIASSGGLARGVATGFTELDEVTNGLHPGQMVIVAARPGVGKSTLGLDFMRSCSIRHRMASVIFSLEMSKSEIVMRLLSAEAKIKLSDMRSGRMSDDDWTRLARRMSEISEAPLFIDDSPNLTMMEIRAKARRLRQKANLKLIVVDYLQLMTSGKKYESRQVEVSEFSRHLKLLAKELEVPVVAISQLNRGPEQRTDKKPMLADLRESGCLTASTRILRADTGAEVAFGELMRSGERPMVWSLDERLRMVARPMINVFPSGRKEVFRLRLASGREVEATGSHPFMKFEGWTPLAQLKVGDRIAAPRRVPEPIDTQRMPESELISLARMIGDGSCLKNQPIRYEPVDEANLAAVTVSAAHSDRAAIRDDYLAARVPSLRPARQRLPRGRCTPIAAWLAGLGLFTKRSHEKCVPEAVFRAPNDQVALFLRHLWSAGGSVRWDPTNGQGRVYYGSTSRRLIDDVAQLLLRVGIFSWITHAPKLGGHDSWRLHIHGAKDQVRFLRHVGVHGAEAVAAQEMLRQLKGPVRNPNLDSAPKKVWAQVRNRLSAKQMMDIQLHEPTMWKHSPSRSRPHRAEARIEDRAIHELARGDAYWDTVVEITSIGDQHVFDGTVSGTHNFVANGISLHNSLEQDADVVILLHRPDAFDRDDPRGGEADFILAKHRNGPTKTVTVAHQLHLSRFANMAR
Description: DnaB intein splicing inhibitors, dose response, biochemical, cell-free fluorescence (AID 449749). Type of data set: functional.

Data set [10] deals with T6, Rac GTPase-activating protein 1 (Homo sapiens, UniProt Q9H0H5).
T6 sequence (Q9H0H5 whole entry): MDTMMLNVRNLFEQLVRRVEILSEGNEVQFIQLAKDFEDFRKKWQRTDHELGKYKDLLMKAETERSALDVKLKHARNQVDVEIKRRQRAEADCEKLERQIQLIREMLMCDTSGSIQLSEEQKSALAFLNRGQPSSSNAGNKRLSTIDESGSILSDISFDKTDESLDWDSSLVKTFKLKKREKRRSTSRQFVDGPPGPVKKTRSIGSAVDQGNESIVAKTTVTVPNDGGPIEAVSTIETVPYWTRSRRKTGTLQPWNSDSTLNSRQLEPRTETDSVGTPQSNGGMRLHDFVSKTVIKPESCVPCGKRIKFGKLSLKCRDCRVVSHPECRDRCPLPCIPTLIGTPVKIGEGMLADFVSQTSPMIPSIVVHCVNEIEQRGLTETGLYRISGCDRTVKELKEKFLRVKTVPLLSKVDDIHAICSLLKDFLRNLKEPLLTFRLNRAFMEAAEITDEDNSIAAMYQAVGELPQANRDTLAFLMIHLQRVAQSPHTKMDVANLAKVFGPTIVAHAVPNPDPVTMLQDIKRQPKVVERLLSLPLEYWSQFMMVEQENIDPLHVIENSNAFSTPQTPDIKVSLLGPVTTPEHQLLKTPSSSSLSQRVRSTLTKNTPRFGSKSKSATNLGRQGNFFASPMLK
Put plainly: blockers of MgcRacGAP-driven Rac1 GTP hydrolysis – biochemical, ADP Hunter fluorescence, primary and confirmatory, confirmation (AID 624330). Type of data set: functional.

The target of data set [11] is Cytochrome P450 2C19 (Homo sapiens, UniProt P33261). Description: Cytochrome panel assay with activity outcomes. Panel member name: p450-cyp2c19 Compounds with AC50 equal or less than 10 uM are considered active. Type of data set: functional. The following applies: read-out: AC50.
Cytochrome P450 2C19, sequence (P33261 whole entry): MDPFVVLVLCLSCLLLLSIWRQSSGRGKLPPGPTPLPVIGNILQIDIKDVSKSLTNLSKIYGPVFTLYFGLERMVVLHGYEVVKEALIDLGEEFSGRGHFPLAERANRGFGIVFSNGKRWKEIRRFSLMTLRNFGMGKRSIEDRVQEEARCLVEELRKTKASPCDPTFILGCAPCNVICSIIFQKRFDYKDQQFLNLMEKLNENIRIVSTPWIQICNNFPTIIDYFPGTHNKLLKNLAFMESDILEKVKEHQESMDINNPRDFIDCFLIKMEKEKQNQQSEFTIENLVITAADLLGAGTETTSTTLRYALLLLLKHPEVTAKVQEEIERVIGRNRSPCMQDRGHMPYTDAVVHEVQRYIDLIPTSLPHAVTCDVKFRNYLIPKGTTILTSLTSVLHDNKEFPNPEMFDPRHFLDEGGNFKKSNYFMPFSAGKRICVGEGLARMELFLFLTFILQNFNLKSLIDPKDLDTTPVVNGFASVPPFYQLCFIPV

T2 sequence (P11712 whole entry): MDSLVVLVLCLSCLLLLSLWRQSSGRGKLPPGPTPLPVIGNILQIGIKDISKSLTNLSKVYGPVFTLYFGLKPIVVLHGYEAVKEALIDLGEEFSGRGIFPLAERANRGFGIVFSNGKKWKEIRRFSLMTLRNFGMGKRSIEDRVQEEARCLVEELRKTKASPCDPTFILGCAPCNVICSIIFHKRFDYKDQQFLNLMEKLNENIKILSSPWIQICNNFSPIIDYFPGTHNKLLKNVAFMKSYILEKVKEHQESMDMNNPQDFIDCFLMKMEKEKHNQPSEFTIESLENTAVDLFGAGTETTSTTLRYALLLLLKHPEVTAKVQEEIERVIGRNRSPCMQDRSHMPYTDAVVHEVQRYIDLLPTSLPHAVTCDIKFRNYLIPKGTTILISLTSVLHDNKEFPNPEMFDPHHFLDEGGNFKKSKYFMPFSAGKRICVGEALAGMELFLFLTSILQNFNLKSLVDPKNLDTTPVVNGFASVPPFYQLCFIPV
Cytochrome P450 2D6, sequence (P10635 whole entry): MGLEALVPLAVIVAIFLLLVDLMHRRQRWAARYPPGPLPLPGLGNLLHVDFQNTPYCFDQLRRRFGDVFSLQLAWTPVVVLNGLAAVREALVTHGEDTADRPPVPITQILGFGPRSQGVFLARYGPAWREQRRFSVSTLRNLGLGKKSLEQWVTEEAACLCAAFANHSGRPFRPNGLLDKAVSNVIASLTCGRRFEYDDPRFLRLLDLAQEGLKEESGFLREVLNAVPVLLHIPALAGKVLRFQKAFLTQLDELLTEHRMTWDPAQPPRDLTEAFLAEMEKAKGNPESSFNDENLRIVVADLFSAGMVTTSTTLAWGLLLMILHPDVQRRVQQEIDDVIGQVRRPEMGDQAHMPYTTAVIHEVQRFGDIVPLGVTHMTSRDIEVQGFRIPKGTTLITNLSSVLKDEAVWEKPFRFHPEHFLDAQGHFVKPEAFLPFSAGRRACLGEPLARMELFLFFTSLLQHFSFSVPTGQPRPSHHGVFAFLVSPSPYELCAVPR
Cytochrome P450 3A4, sequence (P08684 whole entry): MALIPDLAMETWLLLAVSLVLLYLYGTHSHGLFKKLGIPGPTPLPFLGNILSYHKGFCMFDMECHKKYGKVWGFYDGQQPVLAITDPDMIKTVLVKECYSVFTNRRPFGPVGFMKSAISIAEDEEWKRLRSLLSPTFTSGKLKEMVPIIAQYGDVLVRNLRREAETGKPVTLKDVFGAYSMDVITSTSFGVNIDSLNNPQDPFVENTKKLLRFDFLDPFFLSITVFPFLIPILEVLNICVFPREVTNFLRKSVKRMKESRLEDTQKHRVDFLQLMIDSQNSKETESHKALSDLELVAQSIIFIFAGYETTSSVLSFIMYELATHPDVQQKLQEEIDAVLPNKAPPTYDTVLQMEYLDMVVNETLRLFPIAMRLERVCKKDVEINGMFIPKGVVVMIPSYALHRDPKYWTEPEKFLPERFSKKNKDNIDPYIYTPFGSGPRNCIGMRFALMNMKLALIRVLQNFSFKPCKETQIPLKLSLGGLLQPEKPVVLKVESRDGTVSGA
Genome polyprotein, sequence (P29990 2492-3391 limits assumed): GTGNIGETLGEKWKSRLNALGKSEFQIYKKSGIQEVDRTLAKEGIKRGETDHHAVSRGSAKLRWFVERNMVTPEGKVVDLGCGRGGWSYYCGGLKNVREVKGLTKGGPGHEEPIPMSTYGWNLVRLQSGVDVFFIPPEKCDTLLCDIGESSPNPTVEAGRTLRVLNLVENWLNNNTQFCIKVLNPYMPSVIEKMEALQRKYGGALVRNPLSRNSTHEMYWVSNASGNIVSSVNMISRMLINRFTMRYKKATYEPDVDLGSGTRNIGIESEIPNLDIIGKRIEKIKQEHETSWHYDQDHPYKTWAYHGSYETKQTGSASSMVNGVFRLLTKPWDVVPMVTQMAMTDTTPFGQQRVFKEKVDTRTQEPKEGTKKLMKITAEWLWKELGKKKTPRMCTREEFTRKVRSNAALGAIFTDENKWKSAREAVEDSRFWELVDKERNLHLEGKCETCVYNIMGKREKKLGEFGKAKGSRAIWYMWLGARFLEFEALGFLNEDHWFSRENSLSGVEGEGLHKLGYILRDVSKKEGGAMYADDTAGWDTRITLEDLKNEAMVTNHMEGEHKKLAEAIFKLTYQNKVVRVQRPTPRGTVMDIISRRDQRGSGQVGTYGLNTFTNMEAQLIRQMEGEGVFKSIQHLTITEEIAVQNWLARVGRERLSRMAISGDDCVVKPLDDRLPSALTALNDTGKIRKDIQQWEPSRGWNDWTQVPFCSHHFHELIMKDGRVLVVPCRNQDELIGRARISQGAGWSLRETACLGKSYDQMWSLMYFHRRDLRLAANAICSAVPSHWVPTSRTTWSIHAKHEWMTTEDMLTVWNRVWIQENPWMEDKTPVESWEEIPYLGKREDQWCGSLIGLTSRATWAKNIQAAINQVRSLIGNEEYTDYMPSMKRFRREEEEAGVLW

Usually IC50 stands for the midpoint of a concentration-inhibition curve. With `COc1ccc2cc(C#N)c(SCC(=O)N3CCCC3)nc2c1`, the IC50 in data set [1] was 55.7 µM (active).

The AC50 is the midpoint of the concentration-response curve, whichever way the signal moves. With `COC(=O)c1ccccc1NC(=O)c1ccc(COc2ccc(C)c(C)c2)o1`, the AC50 is 1.41 µM (inconclusive) in data set [2] and “inconclusive” in data set [3].

Turning to `Cc1nc(S(=O)(=O)c2cccc(Cl)c2)nc2c1CCC2`, the AC50 entry is “inconclusive” in [3] and 12.6 µM (inconclusive) in [4].

On to `CCOC(=O)COc1ccc(Br)cc1/C=C\c1nc(O)nc(O)c1[N+](=O)[O-]`, for which the IC50 in data set [1] was 36.5 µM (active).

As for `CN1[C@@H]2CC[C@H]1CC(O[C@@H](c1ccccc1)c1ccccc1N)C2` (stereo partly drawn), the AC50 in [2] was 12.6 µM (inconclusive); in data set [5], 25.1 µM (inconclusive); in [3], “inconclusive”; in [4], 15.8 µM (inconclusive).

As to `O=C(Nn1c(-c2ccccc2)nc2ccccc2c1=O)c1cccs1`, in [1], the IC50 was 51.1 µM (active).

Consider `Cc1ccc(S(=O)(=O)NN2C(=O)/C(=C/c3cccs3)SC2=S)cc1`, for which the IC50 in data set [1] is 30.9 µM (active); in [6] it was 35.3 µM (active).

Take `CC(C)(C)NC(=O)C(Cc1ccccc1)NS(=O)(=O)c1ccc2c(c1)CCC(=O)N2` (stereo not drawn): the AC50 in data set [5] was 12.6 µM (inconclusive); in data set [3], “inconclusive”.

`N=C(N)NC(=O)Cc1c(Cl)cccc1Cl` [GUANFACINE]: the values for the AC50 in data set [7] and in data set [3] were 31.6 µM (inconclusive) and “inconclusive”, respectively.

One may read the EC50 as the concentration giving half of the maximal effect. Turning to `CC1=NN(c2ccccc2)C(=O)/C1=C/c1cccc(C)c1`, the EC50 in data set [8] was 1.58 µM (active). In addition, in data set [9], the AC50 was 3.59 µM (active). The IC50 in data set [6] is 50.5 µM (active).

On to `CCOc1ccc(NC(=O)CCNS(=O)(=O)c2ccc3c(c2)c(=O)n(C)c(=O)n3C)cc1`, for which the values for the AC50 result in data set [3] and in data set [4] were “inconclusive” and 2.51 µM (inconclusive), respectively.

For `Cc1c(NC(=S)N/N=C/c2ccc(O)cc2)c(=O)n(-c2ccccc2)n1C`, the IC50 in data set [10] is 55.6 µM (active). The concentration at half-maximal activity (AC50) result in data set [3] is recorded as “inconclusive”.

Take `Cc1cc(C)cc(OCC(=O)Nc2ccc3c4c(cccc24)CC3)c1`: the values for the AC50 entry in data set [3], in data set [4] and in data set [11] were “inconclusive”, 2.51 µM (inconclusive) and 11.2 µM (inconclusive), respectively.

`O=C(N/N=C1\CCCc2ccccc21)c1ccc([N+](=O)[O-])cc1Cl`: in data set [3], the AC50 result is on record as “inconclusive”.
